Experimental data: PubChem BioAssay AID1963965 (Molecular Pharmacology Branch, DTP, NCI, 2024)
One block for each compound: values may come before it.

Tested on: 996289-038-R-J1-PDC spheroid viability
Experiment: Anticancer human tumor 996289-038-R-J1-PDC patient-derived colon adenocarcinoma cell line growth inhibition [PI3K]
Settings: spheroids with HUVEC and MSC; for IC50: curve of first compound; for viability, T/C: stronger effect = lower value
Text: Combinatorial screen of targeted agents with the PI3K inhibitors inavolisib, alpelisib, duvelisib, and copanlisib in multi-cell type tumor spheroids
A high-throughput screen of multi-cell type tumor spheroids was designed to identify active combinations of targeted small molecules and PI3K pathway inhibitors. Complex spheroids include a stromal component modeled by human endothelial cells (HUVEC) and fibroblasts modeled by human mesenchymal stem cells (MSCs). The concentration ranges selected for each drug and investigational agent were based upon clinically achievable concentrations if the clinical Cmax of the agent was known.
Compounds. The drugs and investigational agents: inavolisib (NSC800729), alpelisib (NSC765974), duvelisib (NSC772469), copanlisib (NSC816437), ipatasertib (NSC767898), afuresertib (NSC778305), talazoparib (NSC767125), sapanisertib (NSC764658), selumetinib (NSC741078), tovorafenib (DAY101, NSC766906), vemurafenib (NSC761431), ravoxertinib (NSC781343), sotorasib (NSC818433), MRTX1133 (NSC 836407), abemaciclib (NSC 768073), palbociclib (NSC758247), venetoclax (NSC 766270), SY5609 (NSC837396), enzalutamide (NSC755605), and darolutamide (NSC825331), were obtained from the National Cancer Institute (NCI) Developmental Therapeutics Program Chemical Repository. The FDA-approved anticancer drug set is available from the NCI Developmental Therapeutics Program. […] The stock solutions were prepared in dimethyl sulfoxide (DMSO, Sigma-Aldrich, St. Louis, MO, cat. D2650) at 800-fold the tested concentration and stored at -70 degrees C prior to their use. All drugs and investigational agents were tested over a range starting from a high concentration at or near the clinical Cmax and decreasing in half-log increments. If the clinical Cmax for an agent had not been determined, the highest concentration tested was 10 microM.
Cell Culture. All cells were maintained in an incubator at 37 degrees C and 5% CO2 with 95% humidity. The PDC lines were cultured according to standard operating procedures established by the NCI PDMR (https://pdmr.cancer.gov/sops/default.htm). All PDCs were thawed and cultured in Matrigel-coated flasks prepared with a working solution of 1X Ham's F-12 nutrient mix, without supplementation (Invitrogen, Waltham, MA, cat. 11765054), 100 U/mL penicillin-streptomycin (Invitrogen, cat. 15140122), and 2.5% Matrigel (Corning Inc., Corning, NY, cat. 354248) for the first three passages. The 354836-022-R-J1-PDC, 475296-252-R-J1-PDC, and 997726-040-R-J2-PDC lines were cultured in 6A media, which includes advanced DMEM/F-12 (Thermo Fisher Scientific, cat. 12634028), 10 mM HEPES (Thermo Fisher Scientific, cat. 15630080), 1X GlutaMAX supplement (Thermo Fisher Scientific, cat. 35050061), 0.1 mg/mL primocin (InvivoGen, San Diego, CA, cat. ant-pm-2), 10% defined fetal bovine serum, heat inactivated (HyClone Laboratories Inc., Logan, UT, cat. SH30070.03HI), 50% L-WRN conditioned media (ATCC, cat. CRL-3276), 1.25 mM N-Acetyl-L-cysteine (Sigma-Aldrich, cat. A9165), 10 mM nicotinamide (Sigma-Aldrich, cat. N0636), 1X B-27 supplement (Thermo Fisher Scientific, cat. 17504044), 1X N-2 supplement (Thermo Fisher Scientific, cat. 17502048), and 10 microM Y-27632 dihydrochloride (Tocris Bioscience, Bristol, United Kingdom, cat. 1254). The 624824-186-R-J2-PDC line was cultured in 6C/Colon 1B media, which includes all 6A media components plus 50 ng/mL human EGF recombinant protein (Thermo Fisher Scientific, cat. PHG0311). […]

[1] = second compound 0.00316 µM, first compound 0.0316 µM
[2] = second compound 0.00316 µM, first compound 0.1 µM
[3] = second compound 0.00316 µM, first compound 0.316 µM
[4] = second compound 0.00316 µM, first compound 1 µM
[5] = second compound 0.00316 µM, first compound 3.16 µM
[6] = second compound 0.00316 µM, first compound 10 µM
[7] = second compound 0.01 µM, first compound 0.0316 µM
[8] = second compound 0.01 µM, first compound 0.1 µM
[9] = second compound 0.01 µM, first compound 0.316 µM
[10] = second compound 0.01 µM, first compound 1 µM
[11] = second compound 0.01 µM, first compound 3.16 µM
[12] = second compound 0.01 µM, first compound 10 µM
[13] = second compound 0.0316 µM, first compound 0.0316 µM
[14] = second compound 0.0316 µM, first compound 0.1 µM
[15] = second compound 0.0316 µM, first compound 0.316 µM
[16] = second compound 0.0316 µM, first compound 1 µM
[17] = second compound 0.0316 µM, first compound 3.16 µM
[18] = second compound 0.0316 µM, first compound 10 µM
[19] = second compound 0.1 µM, first compound 0.0316 µM
[20] = second compound 0.1 µM, first compound 0.1 µM
[21] = second compound 0.1 µM, first compound 0.316 µM
[22] = second compound 0.1 µM, first compound 1 µM
[23] = second compound 0.1 µM, first compound 3.16 µM
[24] = second compound 0.1 µM, first compound 10 µM
[25] = second compound 0.316 µM, first compound 0.0316 µM
[26] = second compound 0.316 µM, first compound 0.1 µM
[27] = second compound 0.316 µM, first compound 0.316 µM
[28] = second compound 0.316 µM, first compound 1 µM
[29] = second compound 0.316 µM, first compound 3.16 µM
[30] = second compound 0.316 µM, first compound 10 µM
[31] = second compound 1 µM, first compound 0.0316 µM
[32] = second compound 1 µM, first compound 0.1 µM
[33] = second compound 1 µM, first compound 0.316 µM
[34] = second compound 1 µM, first compound 1 µM
[35] = second compound 1 µM, first compound 3.16 µM
[36] = second compound 1 µM, first compound 10 µM
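Note: spheroids exposed to compounds for seven days before viability read.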
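Throughout, for viability, T/C: luminescence used as a proxy for viable cell amount; percent viability relative to DMSO vehicle control as 100%.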

- IC50 (second compound 0.00316 µM): 8.46 µM
- IC50 (second compound 0.01 µM): 8.25 µM
- IC50 (second compound 0.0316 µM): 6.53 µM
- IC50 (second compound 0.1 µM): 6.52 µM
- IC50 (second compound 0.316 µM): 4.81 µM
- IC50 (second compound 1 µM): 4.21 µM
SMILES: CC1(C)CCC(CN2CCN(c3ccc(C(=O)NS(=O)(=O)c4ccc(NCC5CCOCC5)c([N+](=O)[O-])c4)c(Oc4cnc5[nH]ccc5c4)c3)CC2)=C(c2ccc(Cl)cc2)C1 + CC(Nc1ccc2c(c1)OCCn1cc(N3C(=O)OCC3C(F)F)nc1-2)C(N)=O
- viability, T/C [1]: 83.7%
- viability, T/C [2]: 77.4%
- viability, T/C [3]: 95.8%
- viability, T/C [4]: 112%
- viability, T/C [5]: 93.5%
- viability, T/C [6]: 42.7%
- viability, T/C [7]: 92.3%
- viability, T/C [8]: 86.7%
- viability, T/C [9]: 87.4%
- viability, T/C [10]: 111%
- viability, T/C [11]: 94.5%
- viability, T/C [12]: 41%
- viability, T/C [13]: 95.2%
- viability, T/C [14]: 88.2%
- viability, T/C [15]: 94.7%
- viability, T/C [16]: 84.2%
- viability, T/C [17]: 90%
- viability, T/C [18]: 26.5%
- viability, T/C [19]: 80.3%
- viability, T/C [20]: 81.4%
- viability, T/C [21]: 79.1%
- viability, T/C [22]: 96.7%
- viability, T/C [23]: 86.3%
- viability, T/C [24]: 29.4%
- viability, T/C [25]: 70.3%
- viability, T/C [26]: 62.3%
- viability, T/C [27]: 61.7%
- viability, T/C [28]: 61.2%
- viability, T/C [29]: 74.6%
- viability, T/C [30]: 22%
- viability, T/C [31]: 55.5%
- viability, T/C [32]: 50.7%
- viability, T/C [33]: 59.3%
- viability, T/C [34]: 59.8%
- viability, T/C [35]: 73.3%
- viability, T/C [36]: 25.9%

- IC50 (second compound 0.00316 µM): > 10 µM
- IC50 (second compound 0.01 µM): > 10 µM
- IC50 (second compound 0.0316 µM): > 10 µM
- IC50 (second compound 0.1 µM): > 10 µM
- IC50 (second compound 0.316 µM): > 10 µM
- IC50 (second compound 1 µM): > 10 µM
SMILES: C[C@@H](NC(=O)c1ncnc(N)c1Cl)c1ncc(C(=O)Nc2cc(C(F)(F)F)c(Cl)cn2)s1 + CC(Nc1ccc2c(c1)OCCn1cc(N3C(=O)OCC3C(F)F)nc1-2)C(N)=O
- viability, T/C [1]: 115%
- viability, T/C [2]: 124%
- viability, T/C [3]: 129%
- viability, T/C [4]: 123%
- viability, T/C [5]: 135%
- viability, T/C [6]: 122%
- viability, T/C [7]: 119%
- viability, T/C [8]: 124%
- viability, T/C [9]: 107%
- viability, T/C [10]: 139%
- viability, T/C [11]: 140%
- viability, T/C [12]: 122%
- viability, T/C [13]: 116%
- viability, T/C [14]: 103%
- viability, T/C [15]: 111%
- viability, T/C [16]: 120%
- viability, T/C [17]: 128%
- viability, T/C [18]: 111%
- viability, T/C [19]: 93.7%
- viability, T/C [20]: 93.1%
- viability, T/C [21]: 91.7%
- viability, T/C [22]: 119%
- viability, T/C [23]: 107%
- viability, T/C [24]: 110%
- viability, T/C [25]: 70%
- viability, T/C [26]: 87.6%
- viability, T/C [27]: 87.2%
- viability, T/C [28]: 105%
- viability, T/C [29]: 109%
- viability, T/C [30]: 83.3%
- viability, T/C [31]: 68%
- viability, T/C [32]: 78.1%
- viability, T/C [33]: 57.8%
- viability, T/C [34]: 81.9%
- viability, T/C [35]: 85.6%
- viability, T/C [36]: 65.3%
